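48-hour exposure; five concentrations; linearly interpolated endpoints. The concentration for 50% growth inhibition is given as GI50.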 Active and inactive are the calls of the source. No stated cut-off is given here; in the data, active = GI50 up to about 1.1 µM and inactive = higher.
Tests used:
Assay in all cases: inhibition of tumour cell growth, NCI panel, 48 h
[1] = test system: ACHN
[2] = test system: SNB-19
[3] = test system: OVCAR-8
[4] = test system: RXF 393
[5] = test system: OVCAR-4
[6] = test system: DMS-273
[7] = test system: HCT-15
[8] = test system: NCI-H522
[9] = test system: RPMI-8226
[10] = test system: TK-10
[11] = test system: M14
[12] = test system: HL-60
[13] = test system: A549
[14] = test system: LOX IMVI
[15] = test system: 786-0
[16] = test system: SF-295
[17] = test system: NCI-H460
[18] = test system: T47D
[19] = test system: MDA-N
[20] = test system: DU-145

Row | Compound | GI50 [1] | GI50 [2] | GI50 [3] | GI50 [4] | GI50 [5] | GI50 [6] | GI50 [7] [µM] | GI50 [8] | GI50 [9] | GI50 [10] | GI50 [11] | GI50 [12] | GI50 [13] | GI50 [14] | GI50 [15] | GI50 [16] | GI50 [17] | GI50 [18] | GI50 [19] | GI50 [20]
1 | COC(C)(C)[C@H](O)C(O)CC(C)[C@@H]1CCC23CC12CCC1[C@@]2(C)CCC(OC(C)=O)C(C)(C)C2CC(OC2OC(COC(C)=O)C(O)C(O)C2O)[C@]13C (stereo not given in full) | 3.76 µM (inactive) | 6.84 µM (inactive) | 4.56 µM (inactive) | 4.05 µM (inactive) | 4.55 µM (inactive) | 2.97 µM (inactive) | 1.86 | 1.83 µM (inactive) | 0.264 µM (active) | 7.23 µM (inactive) | 2.77 µM (inactive) | 1.35 µM (inactive) | 2.94 µM (inactive) | 2.79 µM (inactive) | 6.58 µM (inactive) | 3.21 µM (inactive) | 2.88 µM (inactive) | – | – | –
2 | O=C(C(=O)N1CC2C=CC1CC2)c1c[nH]c2ccccc12 (stereo not given) | > 100 µM (inactive) | > 100 µM (inactive) | > 100 µM (inactive) | > 100 µM (inactive) | > 100 µM (inactive) | > 100 µM (inactive) | > 100 | > 100 µM (inactive) | > 100 µM (inactive) | > 100 µM (inactive) | > 100 µM (inactive) | > 100 µM (inactive) | > 100 µM (inactive) | > 100 µM (inactive) | > 100 µM (inactive) | > 100 µM (inactive) | > 100 µM (inactive) | – | – | –
3 | CCOP(=O)(C/C(O)=C1\C(=O)C(CCCNC(=O)OC(C)(C)C)N(Cc2ccc(OC)c(OC)c2)C1=O)OCC (stereo not given) | > 100 µM (inactive) | > 100 µM (inactive) | > 100 µM (inactive) | > 100 µM (inactive) | > 100 µM (inactive) | > 100 µM (inactive) | – | 2.59 µM (inactive) | > 100 µM (inactive) | > 100 µM (inactive) | > 100 µM (inactive) | > 100 µM (inactive) | > 100 µM (inactive) | > 100 µM (inactive) | > 100 µM (inactive) | > 100 µM (inactive) | > 100 µM (inactive) | – | – | –
4 | CC1(C)C(=O)C(C)(C)C1=S | > 100 µM (inactive) | > 100 µM (inactive) | > 100 µM (inactive) | – | > 100 µM (inactive) | > 100 µM (inactive) | > 100 | > 100 µM (inactive) | > 100 µM (inactive) | > 100 µM (inactive) | > 100 µM (inactive) | > 100 µM (inactive) | > 100 µM (inactive) | > 100 µM (inactive) | > 100 µM (inactive) | > 100 µM (inactive) | > 100 µM (inactive) | – | – | –
5 | COc1ccc(-c2cc(=O)c3ccccc3[nH]2)c(OC)c1 | > 100 µM (inactive) | > 100 µM (inactive) | > 100 µM (inactive) | > 100 µM (inactive) | – | > 100 µM (inactive) | > 100 | > 100 µM (inactive) | > 100 µM (inactive) | > 100 µM (inactive) | > 100 µM (inactive) | 73.6 µM (inactive) | > 100 µM (inactive) | > 100 µM (inactive) | > 100 µM (inactive) | > 100 µM (inactive) | > 100 µM (inactive) | – | – | –
6 | CCO/C=C/C(C)C1(C(=O)OCC)CCCCC1=O (stereo not given) | > 100 µM (inactive) | > 100 µM (inactive) | > 100 µM (inactive) | > 100 µM (inactive) | > 100 µM (inactive) | 21.4 µM (inactive) | 63.1 | > 100 µM (inactive) | 84.1 µM (inactive) | > 100 µM (inactive) | > 100 µM (inactive) | 71.1 µM (inactive) | > 100 µM (inactive) | 45.9 µM (inactive) | 56.8 µM (inactive) | > 100 µM (inactive) | > 100 µM (inactive) | – | – | –
7 | NC1=NN(c2ccccc2)C(=O)C1C(=O)C(=O)Nc1nccs1 (stereo not given) | > 100 µM (inactive) | > 100 µM (inactive) | > 100 µM (inactive) | > 100 µM (inactive) | > 100 µM (inactive) | > 100 µM (inactive) | > 100 | > 100 µM (inactive) | > 100 µM (inactive) | > 100 µM (inactive) | > 100 µM (inactive) | > 100 µM (inactive) | > 100 µM (inactive) | > 100 µM (inactive) | > 100 µM (inactive) | > 100 µM (inactive) | > 100 µM (inactive) | – | – | –
8 | CCOC(=O)C1=C(Nc2ccc(Br)cc2)OCC1=O | > 100 µM (inactive) | > 100 µM (inactive) | > 100 µM (inactive) | > 100 µM (inactive) | > 100 µM (inactive) | > 100 µM (inactive) | > 100 | > 100 µM (inactive) | – | > 100 µM (inactive) | > 100 µM (inactive) | 17.9 µM (inactive) | > 100 µM (inactive) | – | > 100 µM (inactive) | > 100 µM (inactive) | > 100 µM (inactive) | – | – | –
9 | Oc1ccc2c3c1OC1C(=NN=C4CCC5(O)C6Cc7ccc(O)c8c7C5(CCN6CC5CC5)C4O8)CCC4(O)C(C2)N(CC2CC2)CCC314 (stereo not given) | > 100 µM (inactive) | 52.7 µM (inactive) | 28.5 µM (inactive) | 40 µM (inactive) | 25.6 µM (inactive) | 24.9 µM (inactive) | > 100 | 21.4 µM (inactive) | 28.8 µM (inactive) | > 46.2 µM (inactive) | 18.3 µM (inactive) | 16.4 µM (inactive) | 20.5 µM (inactive) | 20 µM (inactive) | 24.9 µM (inactive) | 17 µM (inactive) | 21.6 µM (inactive) | – | – | –
10 | CCCCCCCCCCCCOP(N)(=O)OCCCCCCCCCCCC | > 100 µM (inactive) | > 100 µM (inactive) | > 100 µM (inactive) | > 100 µM (inactive) | – | > 100 µM (inactive) | > 100 | > 100 µM (inactive) | > 100 µM (inactive) | > 100 µM (inactive) | > 100 µM (inactive) | > 100 µM (inactive) | > 100 µM (inactive) | > 100 µM (inactive) | > 100 µM (inactive) | > 100 µM (inactive) | > 100 µM (inactive) | – | – | –
11 | Nc1ncnc2c1sc(=S)n2-c1ccccc1 | > 100 µM (inactive) | > 100 µM (inactive) | > 100 µM (inactive) | > 100 µM (inactive) | > 100 µM (inactive) | > 100 µM (inactive) | 96.8 | > 100 µM (inactive) | > 100 µM (inactive) | > 100 µM (inactive) | > 100 µM (inactive) | > 100 µM (inactive) | > 100 µM (inactive) | > 100 µM (inactive) | > 100 µM (inactive) | > 100 µM (inactive) | > 100 µM (inactive) | – | – | –
12 | N/N=C1\C(=O)N(c2ccc(Cl)cc2Cl)C(=O)C(=O)C1c1nc2ccccc2o1 (stereo not given) | > 100 µM (inactive) | > 100 µM (inactive) | > 100 µM (inactive) | – | > 100 µM (inactive) | > 100 µM (inactive) | > 100 | > 100 µM (inactive) | > 100 µM (inactive) | > 100 µM (inactive) | > 100 µM (inactive) | > 100 µM (inactive) | > 100 µM (inactive) | 97.7 µM (inactive) | > 100 µM (inactive) | > 100 µM (inactive) | > 100 µM (inactive) | – | – | –
13 | CC(=O)O[C@H]1CC[C@@]2(C)C(=CC[C@@H]3C2CC[C@]2(C)Nc4[nH]ncc4CC32)C1 (stereo not given in full) | > 100 µM (inactive) | – | 29.9 µM (inactive) | 30.4 µM (inactive) | 18.5 µM (inactive) | 16.9 µM (inactive) | 17.5 | – | 25.5 µM (inactive) | > 100 µM (inactive) | 19.7 µM (inactive) | 20.5 µM (inactive) | 32.2 µM (inactive) | – | > 100 µM (inactive) | 42.2 µM (inactive) | 17.3 µM (inactive) | – | – | –
14 | N#CCC(=O)N/N=C1/C(=O)NC(=O)C(=O)C1c1nc2ccccc2s1 (stereo not given) | > 100 µM (inactive) | > 100 µM (inactive) | > 100 µM (inactive) | > 100 µM (inactive) | > 100 µM (inactive) | > 100 µM (inactive) | > 100 | > 100 µM (inactive) | > 100 µM (inactive) | > 100 µM (inactive) | > 100 µM (inactive) | – | > 100 µM (inactive) | > 100 µM (inactive) | > 100 µM (inactive) | > 100 µM (inactive) | – | – | – | –
15 | COc1cc(C2c3cc4c(cc3OC(O)C2C)OCO4)cc(OC)c1O (stereo not given) | 12.4 µM (inactive) | 11.6 µM (inactive) | 16.6 µM (inactive) | 7.35 µM (inactive) | 35.1 µM (inactive) | – | 5.43 | 2.12 µM (inactive) | 7.4 µM (inactive) | 6.95 µM (inactive) | 6.9 µM (inactive) | 2.92 µM (inactive) | 7.64 µM (inactive) | 8.67 µM (inactive) | 8.89 µM (inactive) | 3.92 µM (inactive) | 4.85 µM (inactive) | 7.64 µM (inactive) | 1.84 µM (inactive) | 23.5 µM (inactive)
16 | CC(C)(C)C1CC[C@H]2c3c([nH]c4ccc(Br)cc34)[C@H]3C(=O)N(c4ccccc4)C(=O)[C@H]3[C@H]2C1 (stereo not given in full) | > 100 µM (inactive) | 23.6 µM (inactive) | 3.49 µM (inactive) | 32.7 µM (inactive) | 11.2 µM (inactive) | 6.27 µM (inactive) | – | 19.4 µM (inactive) | 98.2 µM (inactive) | 48.9 µM (inactive) | 22 µM (inactive) | 7.71 µM (inactive) | 27.4 µM (inactive) | 19.1 µM (inactive) | 6.67 µM (inactive) | 14 µM (inactive) | 8.09 µM (inactive) | – | – | –
17 | O=C(O)C1(C(=O)O)CCN(S(=O)(=O)c2ccccc2)CC1 | > 100 µM (inactive) | > 100 µM (inactive) | > 100 µM (inactive) | > 100 µM (inactive) | > 100 µM (inactive) | – | > 100 | > 100 µM (inactive) | > 100 µM (inactive) | > 100 µM (inactive) | > 100 µM (inactive) | > 100 µM (inactive) | > 100 µM (inactive) | > 100 µM (inactive) | > 100 µM (inactive) | > 100 µM (inactive) | > 100 µM (inactive) | > 100 µM (inactive) | > 100 µM (inactive) | > 100 µM (inactive)

From ChEMBL document CHEMBL1201862, “PubChem BioAssay data set” (2004)
